From paper PMC5078989, “Targeted inhibition of the COP9 signalosome for treatment of cancer” (Nature Communications, 2016)
pEC50: −log10 of the molar value.

Tested on: panel of cancer cell lines
Assay: Cell viability (CellTiter-Glo) dose-response across cancer cell line panel;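 on pEC50: after 72 h compound incubation with CellTiter-Glo ATP readout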
Format: cell-based, human
Details: for pEC50: Homo sapiens
Source text: Next, we explored the effect of CSN5 inhibition on the viability of cancer cells. To obtain a comprehensive picture, we generated dose–response curves with a CSN5 inhibitor across more than 500 cancer cell lines in a previously described standardized setting[47] (Supplementary Data 1).
A standardized CellTiter-Glo Assay (Promega #G7570) based on the quantification of ATP was applied according to the manufacturer's protocol to measure the amount of viable cells in culture. In brief, cells were seeded into 384-well plates at optimal density for each cell line. After 4 h, compounds were added at different concentrations in growth medium and incubated for another 72 h in a humidifying chamber at 37 °C and 5% CO2. […] EC50 values were calculated from the plot of percentage of inhibition versus inhibitor concentration using the nonlinear regression analysis software Origin 7.5SR6 (OriginLab Corp.).

pEC50 (59M, 59M cells): < 4.52 | pEC50 (92.1 cells): 4.84 | pEC50 (639-V, 639-V cells): 4.64 | pEC50 (697 cells): 5.02 | pEC50 (769-P, 769-P cells): 4.89 | pEC50 (786-0, 786-O cells): 5.20 | pEC50 (1321-N1, 1321N1 cells): 4.89 | pEC50 (8505C, 8505C cells): 5.05 | pEC50 (A4/Fuk cells): 4.84 | pEC50 (A101D, A101D cells): 5.01 | pEC50 (A204, A-204 cells): 4.82 | pEC50 (A498, A-498 cells): 4.86 | pEC50 (A549, A549 cells): 4.98 | pEC50 (A673, A-673 cells): 4.84 | pEC50 (A2058, A2058 cells): 4.63 | pEC50 (A2780, A2780 cells): 5.07 | pEC50 (A-375, A-375 cells): 4.98 | pEC50 (ABC-1, ABC-1 cells): 5.44 | pEC50 (ACC-MESO-1, ACC-MESO-1 cells): < 4.52 | pEC50 (AM-38, AM-38 cells): 4.92 | pEC50 (AML-193 cells): 4.72 | pEC50 (AN3-CA, AN3 CA cells): < 4.52 | pEC50 (ASPC1, AsPC-1 cells): 4.87 | pEC50 (BC-3C cells): 5.09 | pEC50 (BEN cells): 4.98 | pEC50 (BFTC-909, BFTC-909 cells): 4.88 | pEC50 (BHY cells): 4.89 | pEC50 (BICR 6 cells): 5.01 | pEC50 (BICR 16 cells): 4.96 | pEC50 (BICR 18 cells): < 4.52 | pEC50 (BICR 31 cells): 4.71 | pEC50 (BT-16, BT-16 cells): 4.74 | pEC50 (BT-474, BT-474 cells): 4.94 | pEC50 (BT-549, BT-549 cells): 4.71 | pEC50 (C3A, C3A cells): 5.02 | pEC50 (CAKI-2, Caki-2 cells): 4.95 | pEC50 (CAL-12T, CAL-12T cells): 5.08 | pEC50 (CAL-27, CAL 27 cells): 4.92 | pEC50 (CAL-29 cells): 4.93 | pEC50 (CAL-85-1, CAL-85-1 cells): 4.73 | pEC50 (CAL-120, CAL-120 cells): 5.04 | pEC50 (CAL-148, CAL-148 cells): 5.02 | pEC50 (CAMA-1, CAMA-1 cells): 4.96 | pEC50 (CAPAN-1, Capan-1 cells): 5.13 | pEC50 (CCRF-HSB-2, CCRF-HSB-2 cells): 5.36 | pEC50 (CEM/C1, CEMC1 cells): 5.16 | pEC50 (CFPAC-1, CFPAC-1 cells): 4.94 | pEC50 (CL-14 cells): 4.95 | pEC50 (CL-34 cells): 4.95 | pEC50 (CMK, CMK cells): 5.09 | pEC50 (CMK-86, CMK-86 cells): 5.13 | pEC50 (COLO 201, COLO 201 cells): 4.90 | pEC50 (COLO 205, COLO 205 cells): 4.93 | pEC50 (COLO 320, COLO-320 cells): 5.08 | pEC50 (COLO 699, COLO-699 cells): 5.00 | pEC50 (COLO 704, COLO-704 cells): 4.90 | pEC50 (COLO-678, COLO-678 cells): 4.78 | pEC50 (COLO-679, COLO-679 cells): 4.87 | pEC50 (COLO-741, COLO 741 cells): 4.57 | pEC50 (COLO-829, COLO 829 cells): 4.94 | pEC50 (COR-L23, COR-L23 cells): 5.07 | pEC50 (COR-L105, COR-L105 cells): 4.88 | pEC50 (COV362, COV362 cells): 4.97 | pEC50 (CW-2, CW-2 cells): 5.02 | pEC50 (Calu-6, Calu-6 cells): 5.02 | pEC50 (ChaGo-K-1, ChaGo-K-1 cells): 4.89 | pEC50 (Ci-1, CI-1 cells): 5.54 | pEC50 (DB, DB cells): 5.07 | pEC50 (DLD-1, DLD-1 cells): < 4.52 | pEC50 (DMS-53, DMS 53 cells): 4.75 | pEC50 (DMS-273, DMS 273 cells): 5.00 | pEC50 (DND41, DND-41 cells): 4.90 | pEC50 (DU-4475, DU4475 cells): 4.83 | pEC50 (EBC-1, EBC-1 cells): 4.75 | pEC50 (EFM-19, EFM-19 cells): 4.88 | pEC50 (EFM-192A, EFM-192A cells): 5.21 | pEC50 (EOL1, EOL-1 cells): 5.46 | pEC50 (FaDu, FaDu cells): 4.99 | pEC50 (Fu97, FU97 cells): 5.07 | pEC50 (G-401, G-401 cells): 5.10 | pEC50 (G-402, G-402 cells): 4.95 | pEC50 (GAMG, GAMG cells): < 4.52 | pEC50 (GDM-1, GDM-1 cells): 5.03 | pEC50 (GI-1, GI-1 cells): 4.81 | pEC50 (GP2d, GP2d cells): < 4.52 | pEC50 (HARA cells): 4.85 | pEC50 (HCC15, HCC-15 cells): 4.64 | pEC50 (HCC44, HCC-44 cells): 5.24 | pEC50 (HCC95, HCC-95 cells): 4.82 | pEC50 (HCC827, HCC827 cells): 4.81 | pEC50 (HCC1143, HCC1143 cells): 4.95 | pEC50 (HCC1187, HCC1187 cells): 4.97 | pEC50 (HCC1500, HCC1500 cells): 4.93 | pEC50 (HCC1588, HCC-1588 cells): 5.12 | pEC50 (HCC1806, HCC1806 cells): 4.64 | pEC50 (HCC1954, HCC1954 cells): 4.81 | pEC50 (HCC-56 cells): 4.73
SMILES: COCc1ccccc1NCc1ccc([C@@H]2[C@H](O)CCCc3cncn32)c(-c2ccccc2Cl)c1 [CSN5i-2e, (5R,6R)-5-(2′-chloro-5-(((2-(methoxymethyl)phenyl)amino)methyl)-[1,1′-biphenyl]-2-yl)-6,7,8,9-tetrahydro-5H-imidazo[1,5-a]azepin-6-ol]
AMAX (59M cells): -44.1889 | AMAX (92.1 cells): -96.1867 | AMAX (A101D cells): -85.3496 | AMAX (A2780 cells): -96.2609 | AMAX (A-704 cells): -60.7987 | AMAX (ABC-1 cells): -95.9302 | AMAX (AM-38 cells): -94.7284 | AMAX (AsPC-1 cells): -87.4169 | AMAX (BFTC-909 cells): -56.5002 | AMAX (BICR 6 cells): -77.6622 | AMAX (BICR 16 cells): -89.8558 | AMAX (Calu-6 cells): -67.9674 | AMAX (DU4475 cells): -97.6355 | AMAX (EFM-192A cells): -84.5576 | AMAX (FaDu cells): -85.1498 | AMAX (GP2d cells): -5.479 | AMAX (HARA cells): -90.816 | AMAX (HCC1143 cells): -51.336 | AMAX (HCC1187 cells): -85.4618 | AMAX (HD-MY-Z cells): -75.4546 | AMAX (HEC-151 cells): -93.7534 | AMAX (HEL cells): -96.2302 | AMAX (HL-60 cells): -99.3648 | AMAX (HLC-1 cells): -73.0832 | AMAX (HLE cells): -72.0117 | AMAX (HLF cells): -45.3286 | AMAX (HSC-4 cells): -74.8911 | AMAX (HT-29 cells): -73.0471 | AMAX (HUP-T4 cells): -52.1939 | AMAX (Hep3B cells): -93.3733 | pEC50 (HCC70, HCC70 cells): 4.88
